From US20110224210A1, “NOVEL BIS-AMIDES AS ANTI-MALARIAL AGENTS” (priority 2008, published 2011)
Where two headings read alike, the source gives them in different places.

Test system: P. falciparum K1 (strain resistant to chloroquine and pyrimethamine), erythrocytic stages
Experiment: Plasmodium falciparum in vitro assay, [3H] hypoxanthine incorporation
Assay type: cell-based
Conditions: [3H] hypoxanthine incorporation, read-out: IC50 (nM) on K1
Method in brief: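 Chloroquine/pyrimethamine-resistant K1 erythrocytic cultures (2.5% haematocrit, 0.3% parasitaemia, hypoxanthine-free RPMI with Albumax) exposed to seven doubling dilutions at 37 °C under low O2.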

[1] = Plasmodium falciparum, K1, P. falciparum strain K1

Compound	IC50 [1] [nM]	IC50 (P. falciparum strain K1) [nM]
CCN(CC)c1ccc(CN(C)CCN(C)C(=O)[C@H](Cc2ccccc2)N(Cc2ccc(N3CCOCC3)cc2)C(=O)C=Cc2ccc(C(F)(F)F)cc2)cc1 [Example 257, (S)-N-[1-({2-[(4-Diethylamino-benzyl)-methyl-amino]-ethyl}-methyl-carbamoyl)-2-phenyl-ethyl]-N-(4-morpholin-4-yl-benzyl)-3-(4-trifluoromethyl-phenyl)-acrylamide]	65	–
CN(CCN(C)C(=O)[C@H](Cc1ccccc1)N(Cc1ccc(N2CCOCC2)cc1)C(=O)C=Cc1ccc(C(F)(F)F)cc1)Cc1cccc(O)c1 [Example 258, (S)-N-[1-({2-[(3-Hydroxy-benzyl)-methyl-amino]-ethyl}-methyl-carbamoyl)-2-phenyl-ethyl]-N-(4-morpholin-4-yl-benzyl)-3-(4-trifluoromethyl-phenyl)-acrylamide]	43	–
CN(CCN(C)C(=O)[C@H](Cc1ccccc1)N(Cc1ccc(N2CCOCC2)cc1)C(=O)C=Cc1ccc(C(F)(F)F)cc1)Cc1cccnc1 [Example 259, (S)-N-(1-{Methyl-[2-(methyl-pyridin-3-ylmethyl-amino)-ethyl]-carbamoyl}-2-phenyl-ethyl)-N-(4-morpholin-4-yl-benzyl)-3-(4-trifluoromethyl-phenyl)-acrylamide]	32	–
CN(CCN(C)C(=O)[C@H](Cc1ccccc1)N(Cc1ccc(N2CCOCC2)cc1)C(=O)C=Cc1ccc(C(F)(F)F)cc1)Cc1cccc(OCCO)c1 [Example 260, (S)-N-{1-[(2-{[3-(2-Hydroxy-ethoxy)-benzyl]-methyl-amino}-ethyl)-methyl-carbamoyl]-2-phenyl-ethyl}-N-(4-morpholin-4-yl-benzyl)-3-(4-trifluoromethyl-phenyl)-acrylamide]	14	–
CN(CCN(C)C(=O)[C@H](Cc1ccccc1)N(Cc1ccc(N2CCOCC2)cc1)C(=O)C=Cc1ccc(C(F)(F)F)cc1)Cc1cccc(C#N)c1 [Example 261, (S)-N-[1-({2-[(3-Cyano-benzyl)-methyl-amino]-ethyl}-methyl-carbamoyl)-2-phenyl-ethyl]-N-(4-morpholin-4-yl-benzyl)-3-(4-trifluoromethyl-phenyl)-acrylamide]	48	–
CC(C)Oc1ccc(CN(C)CCN(C)C(=O)[C@H](Cc2ccccc2)N(Cc2ccc(N3CCOCC3)cc2)C(=O)C=Cc2ccc(C(F)(F)F)cc2)cc1 [Example 262, (S)-N-[1-({2-[(4-Isopropoxy-benzyl)-methyl-amino]-ethyl}-methyl-carbamoyl)-2-phenyl-ethyl]-N-(4-morpholin-4-yl-benzyl)-3-(4-trifluoromethyl-phenyl)-acrylamide]	17	–
CN(CCN(C)C(=O)[C@H](Cc1ccccc1)N(Cc1ccc(N2CCOCC2)cc1)C(=O)C=Cc1ccc(C(F)(F)F)cc1)Cc1ccc2c(c1)OCCN2C [Example 263, (S)-N-[1-(Methyl-{2-[methyl-(4-methyl-3,4-dihydro-2H-benzo[1,4]oxazin-7-ylmethyl)-amino]-ethyl}-carbamoyl)-2-phenyl-ethyl]-N-(4-morpholin-4-yl-benzyl)-3-(4-trifluoromethyl-phenyl)-acrylamide]	72	–
COc1ccc(CN(C)CCN(C)C(=O)[C@H](Cc2ccccc2)N(Cc2ccc(N3CCOCC3)cc2)C(=O)C=Cc2ccc(C(F)(F)F)cc2)cn1 [Example 264, (S)-N-[1-({2-[(6-Methoxy-pyridin-3-ylmethyl)-methyl-amino]-ethyl}-methyl-carbamoyl)-2-phenyl-ethyl]-N-(4-morpholin-4-yl-benzyl)-3-(4-trifluoromethyl-phenyl)-acrylamide]	39	–
CN(CCN(C)C(=O)[C@H](Cc1ccccc1)N(Cc1ccc(N2CCOCC2)cc1)C(=O)C=Cc1ccc(C(F)(F)F)cc1)Cc1nccs1 [Example 265, (S)-N-(1-{Methyl-[2-(methyl-thiazol-2-ylmethyl-amino)-ethyl]-carbamoyl}-2-phenyl-ethyl)-N-(4-morpholin-4-yl-benzyl)-3-(4-trifluoromethyl-phenyl)-acrylamide]	36	–
CN(CCN(C)C(=O)[C@H](Cc1ccccc1)N(Cc1ccc(N2CCOCC2)cc1)C(=O)C=Cc1ccc(C(F)(F)F)cc1)Cc1ccc2c(c1)OCO2 [Example 266, (S)-N-(1-{[2-(Benzo[1,3]dioxol-5-ylmethyl-methyl-amino)-ethyl]-methyl-carbamoyl}-2-phenyl-ethyl)-N-(4-morpholin-4-yl-benzyl)-3-(4-trifluoromethyl-phenyl)-acrylamide]	58	–
CN(CCN(C)C(=O)[C@H](Cc1ccccc1)N(Cc1ccc(N2CCOCC2)cc1)C(=O)C=Cc1ccc(C(F)(F)F)cc1)Cc1cncnc1 [Example 267, (S)-N-(1-{Methyl-[2-(methyl-pyrimidin-5-ylmethyl-amino)-ethyl]-carbamoyl}-2-phenyl-ethyl)-N-(4-morpholin-4-yl-benzyl)-3-(4-trifluoromethyl-phenyl)-acrylamide]	40	–
Cc1ccc(CN(C)CCN(C)C(=O)[C@H](Cc2ccccc2)N(Cc2ccc(N3CCOCC3)cc2)C(=O)C=Cc2ccc(C(F)(F)F)cc2)c(F)c1F [Example 268, (S)-N-[1-({2-[(2,3-Difluoro-4-methyl-benzyl)-methyl-amino]-ethyl}-methyl-carbamoyl)-2-phenyl-ethyl]-N-(4-morpholin-4-yl-benzyl)-3-(4-trifluoromethyl-phenyl)-acrylamide]	80	–
CN(CCN(C)C(=O)[C@H](Cc1ccccc1)N(Cc1ccc(N2CCOCC2)cc1)C(=O)C=Cc1ccc(C(F)(F)F)cc1)Cc1cnc[nH]1 [Example 269, (S)-N-[1-({2-[(3H-Imidazol-4-ylmethyl)-methyl-amino]-ethyl}-methyl-carbamoyl)-2-phenyl-ethyl]-N-(4-morpholin-4-yl-benzyl)-3-(4-trifluoromethyl-phenyl)-acrylamide]	63	–
CN(CCN(C)C(=O)[C@H](Cc1ccccc1)N(Cc1ccc(N2CCOCC2)cc1)C(=O)C=Cc1ccc(C(F)(F)F)cc1)Cc1ccncc1 [Example 270, (S)-N-(1-{Methyl-[2-(methyl-pyridin-4-ylmethyl-amino)-ethyl]-carbamoyl}-2-phenyl-ethyl)-N-(4-morpholin-4-yl-benzyl)-3-(4-trifluoromethyl-phenyl)-acrylamide]	25	–
CC(=O)Nc1ccc(CN(C)C(=O)[C@H](Cc2ccccc2)N(Cc2ccc(N3CCOCC3)cc2)C(=O)C=Cc2ccc(C(F)(F)F)nc2)cc1 [Example 271]	100	–
CN(Cc1ccc(N2CCCC2=O)cc1)C(=O)[C@H](Cc1ccccc1)N(Cc1ccc(N2CCOCC2)cc1)C(=O)C=Cc1ccc(C(F)(F)F)nc1 [Example 272]	80	–
CN(Cc1ccc(NC(=O)C2CC2)cc1)C(=O)[C@H](Cc1ccccc1)N(Cc1ccc(N2CCOCC2)cc1)C(=O)C=Cc1ccc(C(F)(F)F)nc1 [Example 273, (S)-Cyclopropanecarboxylic acid (4-{[methyl-(2-{(4-morpholin-4-yl-benzyl)-[3-(6-trifluoromethyl-pyridin-3-yl)-acryloyl]-amino}-3-phenyl-propionyl)-amino]-methyl}-phenyl)-amide]	75	–
CN(Cc1ccc(N2CCCCC2=O)cc1)C(=O)[C@H](Cc1ccccc1)N(Cc1ccc(N2CCOCC2)cc1)C(=O)C=Cc1ccc(C(F)(F)F)nc1 [Example 274]	63	–
CN(Cc1ccc(NC(=O)c2ccccc2)cc1)C(=O)[C@H](Cc1ccccc1)N(Cc1ccc(N2CCOCC2)cc1)C(=O)C=Cc1ccc(C(F)(F)F)nc1 [Example 275, (S)-N-(4-{[Methyl-(2-{(4-morpholin-4-yl-benzyl)-[3-(6-trifluoromethyl-pyridin-3-yl)-acryloyl]-amino}-3-phenyl-propionyl)-amino]-methyl}-phenyl)-benzamide]	59	–
CC(=O)N(c1ccccc1)c1ccc(CN(C)C(=O)[C@H](Cc2ccccc2)N(Cc2ccc(N3CCOCC3)cc2)C(=O)C=Cc2ccc(C(F)(F)F)nc2)cc1 [Example 276]	65	–
COCCNc1ccc(CN(C)C(=O)[C@H](Cc2ccccc2)N(Cc2ccc(N3CCOCC3)cc2)C(=O)C=Cc2ccc(C(F)(F)F)nc2)cc1 [Example 277]	47	–
(S)-N-[1-Benzyl-2-oxo-2-(4-phenyl-piperidin-1-yl)-ethyl]-N-(4-pyrimidin-5-yl-benzyl)-3-(6-trifluoromethyl-pyridin-3-yl)-acrylamide [Example 49]	–	43
